Test results taken from patent publication US6566047B1, “Method for identifying neurite-growth promoting agents” (The Regents of the University of Colorado, priority 1998, dated 2003).

Key:
AT-2 cells = experiment: Pseudopod length / retraction assay, AT-2 cells; assay type: cell-based, rat; conditions: AA even at 10^−1M
Protocol: Pseudopod Morphometry. To study the effects of various agents on pseudopods on a short-term basis, we measured pseudopod lengths. Cells plated in 35-mm diameter dishes at low density (1×10^4 per dish) were incubated overnight, tie medium was changed, and the experiments were run four hours later. First, cultures were shifted to serum-free medium, which was replaced one hour later by serum-free medium with or without the various agents (thrombin, AA or HETEs). Care was taken to avoid heat and light inactivation of the eicosanoids. Culture dishes were placed on a Zeiss inverted microscope equipped with a heated stage and viewed with a 16×phase contrast objective lens. Randomly selected fields of the cultures, containing generally about 20 cells each, were recorded, digitized and stored in the computer at the onset of the experiment and at different times thereafter.
In some cases, individual cells were monitored over different periods of time immediately after introduction of the reagent, either by mixing it into the medium or by applying it locally to one end of the cell. Local application was done with a “puffer” system that expels microliter amounts of the desired solution from a micromanipulator-controlled micropipette tip. Cell morphology was recorded, and the captured images were analyzed with a Power Macintosh computer using NIH Image. Cell process length was measured from the center of the nucleus to the end of the process. Characterization of the frequencies of pseudopod lengths, at a fixed time for each of a sequence of concentrations of reagent, utilized a gamma regression model with an inverse quadratic linear predictor (McCullagh and Nelder, Generalized Linear Models 2d ed., pp. 291-292 (Chapman & Hall, 1989), separately fit to each concentration data set. Although no formal goodness-of-fit tests were carried out, in virtually every case there was good visual representation of the pattern of response (see FIG. 14). Most data, however, are shown as whisker-box plots, where the center point represents the 50%, the ends of the box the […] and 75%, and the “whiskers” the 5% and 95% quantiles (e.g., FIG. 11). Statistical comparisons of pseudopod lengths for different treatments were done by standard non-parametric techniques (Wilcoxon Rank Sum or Kruskal-Wallis Tests), as judged appropriate. Polynomial curve fittings were done by standard least-squares techniques. Statistical analyses and graphing were done with the use of SAS procedures: Reg, Phreg, Nparlway and Plot (SAS institute Inc., Cary, N.C.).

MAT-Lu cells = experiment: Pseudopod morphometry (pseudopod length assay), MAT-Lu cells; assay type: cell-based, rat
Procedure, shortened: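 Cells plated at 1×10^4 per 35-mm dish overnight, shifted to serum-free medium 1 h, then exposed to thrombin, AA or HETEs in medium or by local micropipette puff. Phase-contrast images over time at heated stage; length measured from nucleus centre to process tip, analysed by gamma regression and non-parametric tests.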

growth cone PLC = experiment: Phospholipase C assay (DG release) in GCPs; assay type: biochemical, rat; conditions: GCPs; thrombin 100 nM; calcium-dependent
From the text: All assays were run in triplicate.

12-Lox = experiment: Eicosanoid (HETE) generation in GCPs; assay type: biochemical, rat
Protocol: Eicosanoid Assays. Eicosanoid production in GCPs was measured by metabolic labelling from ^14C-AA or ^14C-AA-PC or by mass spectrometric detection. […] To measure Lox activity directly, without PLA2 involvement, ^3H-AA was the substrate of choice. Reactions were stopped by the addition of chloroform/methanol as for the phospholipase assays. Reaction products were extracted as described by Birkle et al., Neuromethods, vol. 7, pp.227-244 (Humana Press, N.J. 1988), spotted on pre-activated si gel 60 TLC plates, and the plates developed in the upper phase of ethyl acetate/isooctane/acetic acid/water (100:60:20:100). AA and HETEs were identified by co-migration with standards. Appropriate bands were counted by liquid scintillation spectrometry.
For mass-spectrometric (MS) identification of HETEs, two different strategies were pursued:
(1) the appropriate bands from non-labelled samples (PC substrate) were scraped from the TLC plate into ether/methanol (9:1) and stored under N2 at −20° C. Authentic 12(S)-HETE, run alongside in the same manner, was used as a standard. Just prior to analysis, samples were passed over an SPE filter to eliminate silica particles, dried under argon, resuspended in 500 μl ethanol, and injected (at 3 μl/min) into a Finnigan LCQ quadrupole ion trap mass spectrometer (Finnigan MAT, San Jose, Calif.) equipped with an electrospray ionization source. All spectra were acquired at a capillary temperature of 80° C., and ion guide voltages were tuned to maximize the abundance of the deprotonated ion species [M-H]^− in negative mode. In order to generate a spectrum, typically 100 single scans were averaged.
(2) For the other strategy (liquid chromatography/tandem MS, LC/MS^2), the reaction substrate consisted of 3.5 μM AA, with the addition of 3.5 μM deuterated AA (AA-D8) plus 1 μCi ^3H-AA to track reaction products by mass and radioactivity, respectively. Reactions were stopped with ice-cold ethanol, the mixtures kept overnight at −20° C. under N2, and the proteins spun out The supernatants were diluted with H2O and loaded onto 1-ml C18 Sep-Pak columns (Varian). After washing with H2O, eicosanoid was eluted with 2 ml methanol. These samples were resolved by reverse-phase HPLC, and the eluted fractions analyzed by tandem MS on-line (MacMillan and Murphy, 1995). Collision-induced decomposition of HETE isomers produced characteristic fragments that were identified at the second MS stage.

[1] = tested on: growth cones in cultures of rat cerebral cortex; experiment: Growth cone collapse assay in cortical neuron culture; assay type: cell-based; conditions: thrombin 100 nM
Procedure, shortened: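 Cortical explants from E18 Sprague-Dawley rats were grown 2–3 days on poly-D-lysine, serum-free after 24 h, then pre-incubated 30–60 min at 37 °C with inhibitor or vehicle before repellent factor challenge for 1–30 min. Collapse was graded in randomly selected growth cones in aldehyde-fixed cultures (fixed after 7 min) or imaged live.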

cPLA2 = experiment: PLA2 activity (14C-AA release) in MAT-Lu cells; assay type: biochemical, rat; conditions: thrombin 200 nM
Protocol: MAT-Lu cells were plated at a density of 0.5×10^6 cells per flask (T-75) and grown as detailed above to approximately 25% confluency. On the day before the experiments, the serum level in the medium was dropped to 1%. Cells were fed with fresh 1% serum-medium 4 hrs prior to harvest. For harvesting, cells were rinsed with Ca^++,Mg^++-free HBSS, covered with 2 ml cold Ca^++-free modified Krebs buffer (220 mM sucrose, 50 mM NaCl, 5 mM KCl, 22 mM HEPES, 10 mM glucose. 1.2 mM NaH2PO4 and 1.2 mM MgCl2, pH 7.3), and placed on ice. Cells were scraped off, pelleted for 5 min at 200 rpm and re-suspended in a minimal volume of Krebs buffer. Aliquots were used to determine protein concentration (Biorad Assay) and phopholipase activity. To measure PLA2 activity 10-12 μg of cell protein was incubated with or without thrombin for 10 min on ice, ^14C-AA-labeled phospholipid substrate (7 μM. 40-60 mCi/mmol) was added, and the mixture was transferred to 37° for 20 min. The reaction was stopped by adding cold cliloroform/methanol (1:2 v/v). Lipid extraction followed by thin-layer chromatography (Negre-Aminou et al., J Neurochem 67:2599-2608 (1996)) isolated the reaction product (identified by co-migration with AA standard), which was then scraped off the plates and analyzed in a scintillation spectrometer (Beckman). In some experiments, especially those involving ^14C-AA-phosphatidylinositol as substrate, the diacylglycerol-containing band (identified by co-migration of standard) also was scraped and counted in order to measure phospholipase C (PLC) activity.

“thrombin: potent growth cone repellent; commercially available thrombin (Sigma); rat thrombin in Boyden assays” was tested, and the “pseudopod retraction response of AT-2 cells” value (AT-2 cells) was “essentially did not respond”, the “time to pseudopod retraction after addition to cells in culture dish” value (MAT-Lu cells) was 5 to 10 min and the “effect of agent alone on pseudopod length” value (MAT-Lu cells; typically 15 min exposure) was “caused pseudopod shortening in MAT-Lu cells within minutes of administration”. The “effect on DG release from PI” value (growth cone PLC) was “inhibits DG release, rather than stimulating it”, the “effect on HETE production from AA” value (12-Lox; 3H-AA substrate) was “does indeed stimulate HETE production from AA” and the “increase of radioactivity co-migrating with 12-HETE above control” value (12-Lox; 14C-AA-PC substrate, thrombin 100 nM) was “approximately 2.5 fold”. For the same substance, the “increase of MS peak at m/z 381 in TLC band co-migrating with 12(S)-HETE” value (12-Lox; GCPs first stimulated with thrombin) was about 2 fold, the “increase in generation of compound co-migrating with 12(S)-HETE from 14C-AA-labelled phospholipid, relative to controls” value (12-Lox; growth cones stimulated with thrombin) was 4-8 fold and the “time until most growth cones are fully collapsed” value [1] was 10 to 20 min. For the same substance, the “growth cone collapse, agent alone” value ([1]; TRAP (100 mM), 12(S)-HETE 10^−7 M) was “most growth cones are fully collapsed” and the “increase of PLA2 activity (AA release), PE substrate” value (cPLA2) was 40-50 fold.
